From patent US20120232038A1, “CRYSTALLINE FORMS OF (3R, 3AS, 6AR) - HEXAHYDROFURO [2,3-B] FURAN-3-YL (1S,2R) - (1-{4-[ (DIETHOXYPHOSPHORYL) METHOXY] PHENY1}-3-HYDROXY-4- [4-METHOXY-N- (2-METHYLPROPYL) BENZENESUL - FONAMIDO] BUTAN-2-YL) CARBAMATE” (Gilead Sciences, Inc., priority 2009, published 2012)

What was measured:
Type in all cases: physicochemical
[1] = Dynamic vapor sorption of Compound I crystalline Form I
Text: (§1) Other benefits that crystalline Form I offers include but are not limited to purification and isolation of the crystalline form with respect to the solution and facilitation of storage and handling during the formulation development and manufacturing of drug product.

[2] = Form stability on extended exposure to water (water slurry, XRPD); conditions: slurried in water, 2 week sample, XRPD (FIG. 6)
Procedure: Approximately 15-50 mg of Compound I are weighed and transferred to each of fifteen vials each equipped with a mini magnetic stir bar. The starting material used for this experiment is an amorphous solid based on the X-ray powder diffraction (XRPD) pattern (See FIG. 1). To each vial is added 1 mL of various solvents. The slurries are allowed to stir for two weeks at room temperature (˜22° C.). XRPD characterization of the excess solids were performed at ˜1 week and ˜2 week time points. A sample of 300 μL of the suspension is removed from each vial, transferred to a centrifuge filter (Costar, 0.45 micron) and centrifuged at 1000 rpm for 2 minutes. Solids in the wet cake form are analyzed using XRPD analysis (PANalytical X'Pert PRO X-ray powder diffractometer). This diffractometer uses Cu-Ka radiation and it operates under reflection mode. Scan range is from 2 to 40 degree 2 theta. After air drying the small sample, (XRPD) analysis is performed again to monitor any change in the diffraction pattern between the wet and dry material. TGA is run on the saturated solution to determine the solubility of the equilibrating solids in the solvent. […]

[3] = Moisture uptake of Compound I amorphous material at room temperature under controlled relative humidity
Text: as §1

Row | SMILES | hygroscopicity [1] | water absorbed ([1]; 90% relative humidity) | solid form after extended exposure to water [2] | Weight gain after 5 days ([3]; 75% Relative Humidity) | Weight gain after 11 days ([3]; 75% Relative Humidity) | Weight gain after 5 days ([3]; 97% Relative Humidity)
1 | CCOP(=O)(COc1ccc(CC(NC(=O)OC2CO[C@H]3OCC[C@@H]23)[C@H](O)CN(CC(C)C)S(=O)(=O)c2ccc(OC)cc2)cc1)OCC (stereo partly drawn) [Form I] | not hygroscopic | 0.4% | remains as the same form | – | – | –
2 | CCOP(=O)(COc1ccc(CC(NC(=O)OC2CO[C@H]3OCC[C@@H]23)[C@H](O)CN(CC(C)C)S(=O)(=O)c2ccc(OC)cc2)cc1)OCC (stereo partly drawn) [Compound I amorphous material] | – | – | – | 0.6% | 1.0% | 3.8%
